From publication PMC12527977, “Discovery of a novel tetrapeptide as glucose homeostasis modulator with bifunctionalities of targeting DPP‐IV and microbiota” (iMeta, 2025)
pIC50, pKd: −log10 of the molar value. Read-outs that look alike come from different tables or passages of the source. Where a SMILES comes first, the peptide text is derived from it. Where no end group is shown, it is not given here.

How the values were obtained:
[1] = biological target: T1, DPP-IV (Homo sapiens, UniProt P27487); assay: DPP-IV inhibitory activity of peptides (DPP-IV-Glo Protease Assay Kit); type: biochemical; design: purchased QiZheng Biotech (Shanghai, China) IBDPP0901; details: for DPP-IV inhibitory activity: DPP-IV-Glo Protease Assay Kit, control = 0, in % (unit assumed)
Target sequence in this assay (P27487 whole entry): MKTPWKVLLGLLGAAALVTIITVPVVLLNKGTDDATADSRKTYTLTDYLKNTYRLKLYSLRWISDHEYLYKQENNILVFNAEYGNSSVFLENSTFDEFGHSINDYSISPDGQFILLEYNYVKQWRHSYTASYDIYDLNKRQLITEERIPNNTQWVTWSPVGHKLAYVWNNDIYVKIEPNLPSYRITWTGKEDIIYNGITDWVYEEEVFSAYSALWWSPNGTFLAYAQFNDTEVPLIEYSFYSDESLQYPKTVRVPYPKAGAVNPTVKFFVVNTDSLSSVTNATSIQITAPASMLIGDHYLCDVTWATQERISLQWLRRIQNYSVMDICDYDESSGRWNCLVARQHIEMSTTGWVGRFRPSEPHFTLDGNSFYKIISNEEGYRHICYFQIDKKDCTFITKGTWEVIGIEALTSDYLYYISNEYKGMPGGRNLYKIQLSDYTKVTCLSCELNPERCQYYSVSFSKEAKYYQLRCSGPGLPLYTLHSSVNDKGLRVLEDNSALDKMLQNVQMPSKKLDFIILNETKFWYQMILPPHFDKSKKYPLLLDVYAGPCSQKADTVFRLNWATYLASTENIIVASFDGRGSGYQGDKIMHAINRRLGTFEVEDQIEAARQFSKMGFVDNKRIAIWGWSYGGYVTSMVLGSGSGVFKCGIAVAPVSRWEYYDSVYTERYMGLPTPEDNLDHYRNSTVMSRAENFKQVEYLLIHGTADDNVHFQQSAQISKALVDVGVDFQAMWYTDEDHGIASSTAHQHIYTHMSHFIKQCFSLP

[2] = Simulated digestive stability of peptides (pepsase then trypsase); type: in vitro ADME, porcine; details: pig, relative to basal 100, sheet S2H; for remaining at 4 h, 5 mg/mL: pH 7, simulated digestion, after pepsase then trypsase, read-out: Peptide remaining, Trypsase; for remaining at 2 h, 5 mg/mL: porcine pepsase (simulated gastric digestion), pH 3, simulated digestion, after porcine pepsase, read-out: Peptide remaining, Pepsase
Experimental: The in vitro digestibility of the peptides was determined according to the method described by Ohanenye et al. with some modifications. Briefly, 5.0 mg/mL peptides were mixed with 5000 U/mL porcine pepsase (pH 3.0). The mixture was incubated with continuous shaking in a water bath at 37 ℃ for 2 h. Then, the mixture was adjusted to pH 7.0, and a final concentration of 100 U/mL trypsase was added, followed by continuous shaking at 37 ℃ for another 2 h. After digestion, the enzyme was inactivated, and the mixture was incubated in a water bath (100 ℃) for 20 min. Subsequently, the mixture was centrifuged at 6000 rpm for 20 min, after which the supernatants were collected for further analysis. The concentrations of peptides in the digestions and TPH were determined via AB SCIEX QTrap 6600+ (AB Sciex, Framingham, Massachusetts).

[3] = biological target: T1, DPP-IV; assay: Surface plasmon resonance (Biacore 8K, CM5 chip, 25 °C); type: binding; design: purchased QiZheng Biotech (Shanghai, China) IBDPP0901
[4] = biological target: dipeptidyl peptidase IV (UniProt P27487)
[5] = SPR, Table S3, read-out: KD values

dipeptidyl peptidase IV, sequence (P27487 41-765): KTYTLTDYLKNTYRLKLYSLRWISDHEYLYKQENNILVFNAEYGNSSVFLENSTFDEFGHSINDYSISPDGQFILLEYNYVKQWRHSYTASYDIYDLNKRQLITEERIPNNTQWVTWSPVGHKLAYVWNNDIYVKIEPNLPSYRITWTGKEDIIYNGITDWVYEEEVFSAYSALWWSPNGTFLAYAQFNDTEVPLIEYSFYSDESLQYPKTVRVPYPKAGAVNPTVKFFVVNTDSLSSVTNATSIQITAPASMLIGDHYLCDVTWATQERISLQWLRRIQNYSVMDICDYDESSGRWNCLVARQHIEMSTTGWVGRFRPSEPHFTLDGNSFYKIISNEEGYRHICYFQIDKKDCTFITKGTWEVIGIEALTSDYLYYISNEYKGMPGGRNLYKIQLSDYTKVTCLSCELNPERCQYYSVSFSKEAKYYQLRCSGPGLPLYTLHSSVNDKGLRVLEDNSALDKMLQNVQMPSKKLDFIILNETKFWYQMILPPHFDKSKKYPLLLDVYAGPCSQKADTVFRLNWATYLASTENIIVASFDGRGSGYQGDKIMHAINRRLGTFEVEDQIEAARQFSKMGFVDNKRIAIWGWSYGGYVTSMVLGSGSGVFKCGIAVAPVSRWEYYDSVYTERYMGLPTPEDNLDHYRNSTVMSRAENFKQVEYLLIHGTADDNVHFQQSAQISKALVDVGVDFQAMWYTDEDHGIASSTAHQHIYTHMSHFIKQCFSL

Compound `CC(C)C[C@H](NC(=O)[C@@H](N)Cc1ccccc1)C(=O)N[C@@H](CCC(N)=O)C(=O)O` [FLQ] (H-Phe-Leu-Gln-OH) has a DPP-IV inhibitory activity ([1]; replicate 1, sheet S2F) of 25.2277, a DPP-IV inhibitory activity ([1]; replicate 2, sheet S2F) of 32.7776 and a DPP-IV inhibitory activity ([1]; replicate 3, sheet S2F) of 32.9911. The pIC50 ([1]; Table S3, read-out: IC50) was 2.38.

`CC(C)C[C@H](NC(=O)[C@H](CCC(N)=O)NC(=O)[C@@H](N)Cc1ccccc1)C(=O)O` [FQL] (H-Phe-Gln-Leu-OH) showed a DPP-IV inhibitory activity ([1]; replicate 1, sheet S2F) of 25.4694, a DPP-IV inhibitory activity ([1]; replicate 2, sheet S2F) of 22.9016 and a DPP-IV inhibitory activity ([1]; replicate 3, sheet S2F) of 15.9024. For the same compound, the pIC50 ([1]; Table S3, read-out: IC50) was 3.01.

Compound `CC(C)C[C@H](NC(=O)[C@@H](N)CC(C)C)C(=O)N[C@@H](Cc1ccc(O)cc1)C(=O)O` [LLY] (H-Leu-Leu-Tyr-OH) has a remaining at 4 h, 5 mg/mL ([2]; replicate 1) of 0.95%, a remaining at 4 h, 5 mg/mL ([2]; replicate 2) of 0.78% and a remaining at 4 h, 5 mg/mL ([2]; replicate 3) of 0.81%. For the same compound, the remaining at 2 h, 5 mg/mL ([2]; replicate 1) was 1.24%, the remaining at 2 h, 5 mg/mL ([2]; replicate 2) was 0.79% and the remaining at 2 h, 5 mg/mL ([2]; replicate 3) was 0.98%. It also gave a DPP-IV inhibitory activity ([1]; replicate 1, sheet S2F) of 32.8224, a DPP-IV inhibitory activity ([1]; replicate 2, sheet S2F) of 33.3933 and a DPP-IV inhibitory activity ([1]; replicate 3, sheet S2F) of 36.9146. It also gave a pIC50 ([1]; Table S3, read-out: IC50) of 3.08 and a pKd [3, 5] of 5.28.

In the case of `CC(C)C[C@H](N)C(=O)N[C@@H](CC(N)=O)C(=O)N[C@@H](C)C(=O)N1CCC[C@H]1C(=O)O` [LNAP] (H-LNAP-OH), the DPP-IV inhibitory activity ([1]; replicate 1, sheet S2F) was 13.9411, the DPP-IV inhibitory activity ([1]; replicate 2, sheet S2F) was 16.0533 and the DPP-IV inhibitory activity ([1]; replicate 3, sheet S2F) was 12.0865. The pIC50 ([1]; Table S3, read-out: IC50) was 3.23.

With `CC(C)[C@H](N)C(=O)N[C@@H](C)C(=O)N[C@@H](CC(=O)O)C(=O)N[C@@H](Cc1c[nH]c2ccccc12)C(=O)O` [VADW] (H-VADW-OH) the remaining at 4 h, 5 mg/mL ([2]; replicate 1) was 9.2%, the remaining at 4 h, 5 mg/mL ([2]; replicate 2) was 9.52% and the remaining at 4 h, 5 mg/mL ([2]; replicate 3) was 7.78%. For the same compound, the remaining at 2 h, 5 mg/mL ([2]; replicate 1) was 12.2%, the remaining at 2 h, 5 mg/mL ([2]; replicate 2) was 14.3% and the remaining at 2 h, 5 mg/mL ([2]; replicate 3) was 10.4%. For the same compound, the DPP-IV inhibitory activity ([1]; replicate 1, sheet S2F) was 63.2506, the DPP-IV inhibitory activity ([1]; replicate 2, sheet S2F) was 57.5085 and the DPP-IV inhibitory activity ([1]; replicate 3, sheet S2F) was 57.0946. The pIC50 ([1]; Table S3, read-out: IC50) was 3.46 and the pKd [3, 5] was 4.85.

`N[C@@H](Cc1c[nH]c2ccccc12)C(=O)N[C@@H](CC(=O)O)C(=O)N[C@@H](CO)C(=O)N[C@@H](Cc1ccc(O)cc1)C(=O)O` [WDSY] (H-WDSY-OH) gave a DPP-IV inhibitory activity ([1]; replicate 1, sheet S2F) of 82.2499, a DPP-IV inhibitory activity ([1]; replicate 2, sheet S2F) of 85.4257 and a DPP-IV inhibitory activity ([1]; replicate 3, sheet S2F) of 81.38. The pIC50 ([1]; Table S3, read-out: IC50) was 3.20.

`CC(C)C[C@H](NC(=O)[C@@H](N)Cc1c[nH]c2ccccc12)C(=O)N[C@@H](CCC(=O)O)C(=O)O` [WLE] (H-Trp-Leu-Glu-OH) showed a DPP-IV inhibitory activity ([1]; replicate 1, sheet S2F) of 21.3239, a DPP-IV inhibitory activity ([1]; replicate 2, sheet S2F) of 16.4075 and a DPP-IV inhibitory activity ([1]; replicate 3, sheet S2F) of 17.3019. The pIC50 ([1]; Table S3, read-out: IC50) was 2.62.

Work on `CC(C)C[C@H](NC(=O)[C@H](CC(N)=O)NC(=O)[C@@H](N)Cc1ccc(O)cc1)C(=O)O` [YNL] (H-Tyr-Asn-Leu-OH) yielded a DPP-IV inhibitory activity ([1]; replicate 1, […]) of 24.2295, a DPP-IV inhibitory activity ([1]; replicate 2, […]) of 23.675 and a DPP-IV inhibitory activity ([1]; replicate 3, […]) of 21.7871. It also gave a pIC50 ([1]; Table S3, read-out: IC50) of 3.85.

With `CSCC[C@H](NC(=O)[C@H](CC(C)C)NC(=O)[C@H](CCC(N)=O)NC(=O)[C@@H](N)Cc1ccc(O)cc1)C(=O)O` [YQLM] (H-YQLM-OH) the remaining at 4 h, 5 mg/mL ([2]; replicate 1) was 14.3%, the remaining at 4 h, 5 mg/mL ([2]; replicate 2) was 12.7% and the remaining at 4 h, 5 mg/mL ([2]; replicate 3) was 9.83%. The remaining at 2 h, 5 mg/mL ([2]; replicate 2) was 14.7%, the remaining at 2 h, 5 mg/mL ([2]; replicate 3) was 15% and the DPP-IV inhibitory activity ([1]; replicate 1, sheet S2F) was 41.3327. It also gave a DPP-IV inhibitory activity ([1]; replicate 2, sheet S2F) of 38.0136, a DPP-IV inhibitory activity ([1]; replicate 3, sheet S2F) of 34.538 and a pIC50 ([1]; Table S3, read-out: IC50) of 3.19. It also gave a pKd [3, 5] of 4.60.

`CC(C)C[C@H](NC(=O)[C@H](CCC(N)=O)NC(=O)[C@@H](N)Cc1ccc(O)cc1)C(=O)O` [YQL] (H-Tyr-Gln-Leu-OH) showed a DPP-IV inhibitory activity ([1]; replicate 1, […]) of 20.7988, a DPP-IV inhibitory activity ([1]; replicate 2, […]) of 21.5571 and a DPP-IV inhibitory activity ([1]; replicate 3, […]) of 29.5286. For the same compound, the pIC50 ([1]; Table S3, read-out: IC50) was 3.55.

Work on `C[C@@H](O)[C@H](NC(=O)[C@@H](N)Cc1ccc(O)cc1)C(=O)NCC(=O)N[C@@H](CC(=O)O)C(=O)O` [YTGD] (H-YTGD-OH) yielded a DPP-IV inhibitory activity ([1]; replicate 1, sheet S2F) of 20.1405, a DPP-IV inhibitory activity ([1]; replicate 2, sheet S2F) of 15.5931 and a DPP-IV inhibitory activity ([1]; replicate 3, sheet S2F) of 21.6532. The pIC50 ([1]; Table S3, read-out: IC50) was 3.49 and the pKd [3, 5] was 4.00.

Compound FDGEL [FDGEL] has a pIC50 [1] of 1.35, a DPP-IV inhibitory activity ([1]; replicate 1, […]) of 28.637 and a DPP-IV inhibitory activity ([1]; replicate 2, […]) of 26.7775. The DPP-IV inhibitory activity ([1]; replicate 3, […]) was 19.1292.

With FLQ (peptide) the IC50 of inhibition of DPP-IV activity in vitro [4] was 4130 µM.

Work on FNPRG [FNPRG] yielded a pIC50 [1] of 1.39, a DPP-IV inhibitory activity ([1]; replicate 1, […]) of 47.4625 and a DPP-IV inhibitory activity ([1]; replicate 2, […]) of 43.5702. The DPP-IV inhibitory activity ([1]; replicate 3, […]) was 43.4293.

With FNVDSE [FNVDSE] the pIC50 [1] was 1.08, the DPP-IV inhibitory activity ([1]; replicate 1, […]) was 14.7737 and the DPP-IV inhibitory activity ([1]; replicate 2, […]) was 13.6123. It also gave a DPP-IV inhibitory activity ([1]; replicate 3, […]) of 13.4568.

FQL (peptide) showed an IC50 of inhibition of DPP-IV activity in vitro [4] of 970 µM.

For LLY (peptide), the IC50 of inhibition of DPP-IV activity in vitro [4] was 830 µM.

Work on PQNHA [PQNHA] yielded a pIC50 [1] of 1.61, a DPP-IV inhibitory activity ([1]; replicate 1, […]) of 27.665 and a DPP-IV inhibitory activity ([1]; replicate 2, […]) of 17.6559. It also gave a DPP-IV inhibitory activity ([1]; replicate 3, […]) of 16.9893.

With PSSQQ (peptide) the IC50 of inhibition of DPP-IV activity in vitro [4] was 730 µM.

PSSQQ [PSSQQ] showed a pIC50 [1] of 3.14, a DPP-IV inhibitory activity ([1]; replicate 1, […]) of 8.036 and a DPP-IV inhibitory activity ([1]; replicate 2, […]) of 8.558. The DPP-IV inhibitory activity ([1]; replicate 3, […]) was 22.2643 and the pKd [3] was 1.43.

VFTPQ [VFTPQ] showed a pIC50 [1] of 1.73, a DPP-IV inhibitory activity ([1]; replicate 1, […]) of 17.5527 and a DPP-IV inhibitory activity ([1]; replicate 2, […]) of 15.1374. For the same compound, the DPP-IV inhibitory activity ([1]; replicate 3, […]) was 15.1911.
